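Step 1: Grow cells in 96-well plates. Step 2: Expose to compound for 48 hours at 5 concentrations. Step 3: Interpolate endpoints linearly; if unreached, use highest concentration. GI50 = concentration required for 50% inhibition of growth. TGI: concentration producing complete growth inhibition.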
Tests used:
Assay in all cases: inhibition of tumour cell growth, NCI panel, 48 h
NCI-H226 lung = tested on: NCI-H226 lung
SNB-75 CNS = tested on: SNB-75 CNS
SNB-19 CNS = tested on: SNB-19 CNS
BT-549 breast = tested on: BT-549 breast
MDA-MB-231 breast = tested on: MDA-MB-231 breast
NCI-H522 lung = tested on: NCI-H522 lung
U251 CNS = tested on: U251 CNS
SF-539 CNS = tested on: SF-539 CNS
KM12 colon = tested on: KM12 colon
MALME-3M melanoma = tested on: MALME-3M melanoma
SF-268 CNS = tested on: SF-268 CNS
OVCAR-8 ovarian = tested on: OVCAR-8 ovarian
HS 578T breast = tested on: HS 578T breast
OVCAR-5 ovarian = tested on: OVCAR-5 ovarian
MDA-MB-435 = tested on: MDA-MB-435
HCC-2998 colon = tested on: HCC-2998 colon
NCI/ADR-RES ovarian = tested on: NCI/ADR-RES ovarian
HCT-116 colon = tested on: HCT-116 colon
SR leukemia = tested on: SR leukemia
SK-MEL-2 melanoma = tested on: SK-MEL-2 melanoma
ACHN renal = tested on: ACHN renal
MDA-MB-468 breast = tested on: MDA-MB-468 breast
HOP-92 NSCLC = tested on: HOP-92 NSCLC
UO-31 renal = tested on: UO-31 renal
OVCAR-4 ovarian = tested on: OVCAR-4 ovarian
IGROV1 ovarian = tested on: IGROV1 ovarian
A549 NSCLC = tested on: A549 NSCLC
A498 renal = tested on: A498 renal
MCF7 breast = tested on: MCF7 breast
PC-3 prostate = tested on: PC-3 prostate
SK-OV-3 ovarian = tested on: SK-OV-3 ovarian
UACC-62 melanoma = tested on: UACC-62 melanoma
EKVX NSCLC = tested on: EKVX NSCLC
CAKI-1 renal = tested on: CAKI-1 renal
TK-10 renal = tested on: TK-10 renal
SK-MEL-5 melanoma = tested on: SK-MEL-5 melanoma
OVCAR-3 ovarian = tested on: OVCAR-3 ovarian
SW-620 colon = tested on: SW-620 colon
RPMI-8226 leukemia = tested on: RPMI-8226 leukemia
COLO 205 colon = tested on: COLO 205 colon
M14 melanoma = tested on: M14 melanoma
DU-145 prostate = tested on: DU-145 prostate
SF-295 CNS = tested on: SF-295 CNS
HCT-15 colon = tested on: HCT-15 colon
LOX IMVI melanoma = tested on: LOX IMVI melanoma
RXF 393 renal = tested on: RXF 393 renal
K-562 leukemia = tested on: K-562 leukemia
UACC-257 melanoma = tested on: UACC-257 melanoma
HT29 colon = tested on: HT29 colon
786-0 renal = tested on: 786-0 renal
MOLT-4 leukemia = tested on: MOLT-4 leukemia
HL-60(TB) leukemia = tested on: HL-60(TB) leukemia
HOP-62 NSCLC = tested on: HOP-62 NSCLC
NCI-H23 lung = tested on: NCI-H23 lung
NCI-H460 lung = tested on: NCI-H460 lung
T-47D breast = tested on: T-47D breast
CCRF-CEM leukemia = tested on: CCRF-CEM leukemia
SK-MEL-28 melanoma = tested on: SK-MEL-28 melanoma
SN12C renal = tested on: SN12C renal

## CCCCCc1ccc(S(=O)(=O)N(C(C)=O)c2cc(-c3csc(N(C)C(C)=O)n3)ccc2N2CCN(C)CC2)cc1
NCI-H226 lung
  GI50: 10.6 µM
  TGI: 24.1 µM
SNB-75 CNS
  GI50: 6.47 µM
  TGI: 14.2 µM
SNB-19 CNS
  GI50: 8.81 µM
  TGI: 16.6 µM
BT-549 breast
  GI50: 8.89 µM
  TGI: 17.9 µM
MDA-MB-231 breast
  GI50: 4.01 µM
  TGI: 11.8 µM
NCI-H522 lung
  GI50: 8.69 µM
  TGI: 17.3 µM
U251 CNS
  GI50: 7.12 µM
  TGI: 14.7 µM
SF-539 CNS
  GI50: 7.18 µM
  TGI: 14.5 µM
KM12 colon
  GI50: 7.83 µM
  TGI: 17.2 µM
MALME-3M melanoma
  GI50: 7.61 µM
  TGI: 15.3 µM
SF-268 CNS
  GI50: 7.35 µM
  TGI: 18 µM
OVCAR-8 ovarian
  GI50: 9.42 µM
  TGI: 19.5 µM
HS 578T breast
  GI50: 8.77 µM
  TGI: 25.6 µM
OVCAR-5 ovarian
  GI50: 8.44 µM
  TGI: 16.2 µM
MDA-MB-435
  GI50: 2.97 µM
  TGI: 11.4 µM
HCC-2998 colon
  GI50: 6 µM
  TGI: 13.2 µM
NCI/ADR-RES ovarian
  GI50: 8.01 µM
  TGI: 17.3 µM
HCT-116 colon
  GI50: 2.17 µM
  TGI: 8.36 µM
SR leukemia
  GI50: 1.23 µM
  TGI: 4.07 µM
SK-MEL-2 melanoma
  GI50: 10.2 µM
  TGI: 19 µM
ACHN renal
  GI50: 8.86 µM
  TGI: 16.7 µM
MDA-MB-468 breast
  GI50: 2.99 µM
  TGI: 11.9 µM
HOP-92 NSCLC
  GI50: 5.97 µM
  TGI: 16 µM
UO-31 renal
  GI50: 7.22 µM
  TGI: 14.6 µM
OVCAR-4 ovarian
  GI50: 9.87 µM
  TGI: 23.6 µM
IGROV1 ovarian
  GI50: 9.04 µM
  TGI: 16.9 µM
A549 NSCLC
  GI50: 6.37 µM
  TGI: 13.8 µM
A498 renal
  GI50: 8.43 µM
  TGI: 16.2 µM
MCF7 breast
  GI50: 2.22 µM
  TGI: 8.7 µM
PC-3 prostate
  GI50: 6.48 µM
  TGI: 16.3 µM
SK-OV-3 ovarian
  GI50: 9.9 µM
  TGI: 18.1 µM
UACC-62 melanoma
  GI50: 9.44 µM
  TGI: 17.4 µM
EKVX NSCLC
  GI50: 7.7 µM
  TGI: 15.8 µM
CAKI-1 renal
  GI50: 6.19 µM
  TGI: 13.6 µM
TK-10 renal
  GI50: 9.62 µM
  TGI: 17.9 µM
SK-MEL-5 melanoma
  GI50: 7.04 µM
  TGI: 14.4 µM
OVCAR-3 ovarian
  GI50: 6.4 µM
  TGI: 15.1 µM
SW-620 colon
  GI50: 1.51 µM
  TGI: 5.99 µM
RPMI-8226 leukemia
  GI50: 4.61 µM
  TGI: 19.1 µM
COLO 205 colon
  GI50: 6.54 µM
  TGI: 15.5 µM
M14 melanoma
  GI50: 3.25 µM
  TGI: 12.2 µM
DU-145 prostate
  GI50: 7.52 µM
  TGI: 15.4 µM
SF-295 CNS
  GI50: 2.56 µM
  TGI: 10.2 µM
HCT-15 colon
  GI50: 2.13 µM
  TGI: 8.02 µM
LOX IMVI melanoma
  GI50: 1.01 µM
  TGI: 1.9 µM
RXF 393 renal
  GI50: 3.99 µM
  TGI: 13.3 µM
K-562 leukemia
  GI50: 1.53 µM
  TGI: 59.3 µM
UACC-257 melanoma
  GI50: 7.51 µM
  TGI: 15.5 µM
HT29 colon
  GI50: 2.11 µM
  TGI: 7.89 µM
786-0 renal
  GI50: 4.46 µM
  TGI: 13.5 µM
MOLT-4 leukemia
  GI50: 2.31 µM
  TGI: 11.1 µM
HL-60(TB) leukemia
  GI50: 1.57 µM
  TGI: 6.24 µM
HOP-62 NSCLC
  GI50: 8.71 µM
  TGI: 17 µM
NCI-H23 lung
  GI50: 8.92 µM
  TGI: 17.3 µM
NCI-H460 lung
  GI50: 1.7 µM
  TGI: 6.22 µM
T-47D breast
  GI50: 7.66 µM
  TGI: 18 µM
CCRF-CEM leukemia
  GI50: 3.63 µM
  TGI: 13.7 µM
SK-MEL-28 melanoma
  GI50: 7.98 µM
  TGI: 15.6 µM
SN12C renal
  GI50: 7.7 µM
  TGI: 16.2 µM
